Reference: US20030053967A1, “Use of 3,4-dihydroxy-mandelic acid for protecting against oxidative damage caused by ultra-violet light” (priority 2000, published 2003)

Legend:
[1] = 1,1-diphenyl-2-picrylhydrazyl test (DPPH test) for the removal of free radicals; format: biochemical; conditions: DPPH 100 μmol/l in methanol, absorption at 515 nm
Method: The activity of 3,4-dihydroxymandelic acid as free-radical scavenger was compared with that of conventional free-radical scavengers. For this purpose, the 1,1-diphenyl-2-picrylhydrazyl test (DPPH test) for the removal of free radicals was used.
1,1-Diphenyl-2-picrylhydrazyl (DPPH) was dissolved in methanol to a concentration of 100 μmol/l. A series of dilutions of 3,4-dihydroxymandelic acid, vitamin C, α-tocopherol and 2,6-di-tert-butyl-4-methylphenol were prepared in methanol. Methanol was used as the control. 2500 μl of the DPPH solution were mixed with 500 μl of each test solution and the decrease in absorption at 515 nm was read until the decrease was less than 2% per hour. The activity of the test substances as free-radical scavengers was calculated using the following equation:
Activity as free-radical scavenger (%)=100−(absorption of the test compounds)/(absorption of the control)×100.
The activity of the free-radical scavengers (%) in a series of dilutions of test compounds was used to calculate, for each test compound, the effective relative concentration EC50 (based on the starting concentration of DPPH, EC=c (test compound)/c(DPPH)) of a test compound at which 50% of the free radical DPPH had been removed.

[2] = accelerated autoxidation of lipids by air, Rancimat apparatus, soybean oil; conditions: for AOI in soybean oil at 100° C. with 0.05% test substance: soybean oil purified over alumina, AOI = IP(test)/IP(control); for AOI, soybean oil, 100° C.: single substance, c 0.025 % by wt.
Method: (§1) The test system used was the accelerated autoxidation of lipids by air with or without antioxidant using the Rancimat apparatus (Rancimat is a registered trademark of Metrohm AG, Herisau, Switzerland). […] In a control sample, only solvent was added. […] The conductivity of this aqueous solution was continuously measured and documented. The oxidation of (unsaturated) fats proceeds only very slowly for some time and then suddenly increases. The time to the increase is referred to as the induction period (IP). The following equation was used to calculate the antioxidative index (AOI): AOI=IP(with test solution/IP(control sample) The results for the experiment in soybean oil that has been purified over alumina grade N at 100° C. are shown in Table 2: The experiments were carried out as described under Example 2. […] The AOI values measured for the combinations were compared with the AOI values calculated according to the following formula: […]

[3] = accelerated autoxidation of lipids by air, Rancimat apparatus, squalene; conditions: for AOI in squalene at 80° C. with 0.005% of test substance: squalene purified over alumina, stabilized with 1 ppm α-tocopherol, 0.005% test substance; for AOI, squalene, 80° C.: single substance, c 0.0025 % by wt.
Method: as §1, with “squalene” for “soybean oil”, “N and stabilized with 1 ppm of α-tocopherol” for “N”, “80°” for “100°”, “3:” for “2:”

[4] = system: ultraviolet light-induced sebum oxidation (squalene hydroperoxide, SQOOH); experiment: protective action against ultraviolet light-induced sebum oxidation on the skin of subjects; format: in vivo, human; conditions: back skin of 12 subjects, UV 320 to 400 nm, 10 joules/cm^2; for c(H2O2)/c(SQ): 2 mg/cm^2 topical (acid: 200 mg in 200 ml 1,3-butylene glycol twice daily for 2 days; tocopherol: 0.2% ethanolic, once before irradiation); for % inhibition compared with the untreated area: squalene hydroperoxide, 2 mg/cm^2 topical
Method: 200 mg of 3,4-dihydroxymandelic acid were dissolved in 200 ml of 1,3-butylene glycol (solution A). In addition, a 0.2% strength ethanolic solution of tocopherol was prepared (solution B). A dose of 2 mg/cm^2 of solution A was applied twice daily to the skin on the back of 12 subjects for 2 days in each case. Prior to the following irradiation, solution B was applied to a control area (2 mg/cm^2). The 2 treated and one untreated sites were irradiated with ultraviolet light (320 to 400 nm, 10 joules/cm^2). The test areas in each case were treated with 4 ml of ethanol for 2 min, the solutions were dried under nitrogen at room temperature and the residue was taken up in 1 ml of ethanol. The latter solutions were investigated by HPLC for their content of squalene (detection at 210 nm against standard) or squalene hydroperoxide (SQOOH, determination of the peroxide content using cytochrome C/luminol-enhanced chemiluminescence). The content of squalene peroxide was given relative to squalene in the form of picomols peroxide per fig of squalene.
The inhibition based on the untreated area was calculated using the following equation:
% inhibition=100·(cSQOOH untreated−cSQOOH, treated)/CSQOOH, untreated

SMILES	EC50 (effective relative concentration at which 50% of the free radical DPPH had been removed, c(test compound)/c(DPPH)) [1] [mol/mol]	AOI in soybean oil at 100° C. with 0.05% test substance [2]	AOI in squalene at 80° C. with 0.005% of test substance [3]	AOI, soybean oil, 100° C. [2]	AOI, squalene, 80° C. [3]	c(H2O2)/c(SQ) [4] [pmol/µg]	% inhibition compared with the untreated area [4] [%]
Cc1cc(C(C)(C)C)c(O)c(C(C)(C)C)c1 [2,6-Di-tert-butyl-4-methylphenol]	0.240	4.8	38				
O=C(O)C(O)c1ccc(O)c(O)c1 (centres unmarked) [3,4-Dihydroxymandelic acid, 2-(3,4-dihydroxyphenyl)-2-hydroxyacetic acid]	0.062	9.5	34	5.4	15	618 ± 45	33 ± 7
O=C1O[C@H]([C@@H](O)CO)C(O)=C1O [Vitamin C]	0.270	1.2	0.7				
Cc1c(C)c2c(c(C)c1O)CC[C@@](C)(CCC[C@H](C)CCC[C@H](C)CCCC(C)C)O2 [α-Tocopherol]	0.250	5.1	39	4.7	23	664 ± 19	28 ± 6
